Experimental data: patent publication US5077309A, “Prostaglandins” (National Research Development Corporation, priority 1986, dated 1991)

How the values were obtained:
guinea pig trachea = target: T1, guinea pig trachea (Cavia porcellus, UniProt A0A286Y4I8); assay: Guinea pig trachea system: antagonism of 11,9-(epoxymethano) PGH2 tension response in trachea strips (Gaddum-Schild KB); type: cell-based; details: agonist 11,9-(epoxymethano) PGH2; compound added 50 minutes before agonist; head KB × 10^-6
T1 construct: from tissue; host or cells: guinea pig trachea, spiral strips
T1 sequence (A0A286Y4I8 1-347): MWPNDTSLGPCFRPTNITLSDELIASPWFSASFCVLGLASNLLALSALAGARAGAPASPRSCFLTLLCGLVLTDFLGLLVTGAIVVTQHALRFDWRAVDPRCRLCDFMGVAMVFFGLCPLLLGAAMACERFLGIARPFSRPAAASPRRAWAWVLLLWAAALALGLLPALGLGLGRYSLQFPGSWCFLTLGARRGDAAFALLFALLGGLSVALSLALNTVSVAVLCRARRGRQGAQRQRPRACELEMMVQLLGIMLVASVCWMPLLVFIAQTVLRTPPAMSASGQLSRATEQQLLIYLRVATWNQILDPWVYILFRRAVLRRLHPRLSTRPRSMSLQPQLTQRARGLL
Method: Spiral strips of trachea are suspended in Kreb's-Henseleit solution, additionally containing atropine sulphate (2×10^-8 M) and indomethacin (10^-6 M), aerated with 95% O2 /5% CO2 and maintained at 37° C. Tension changes are recorded with a Grass FT03 force transducer. Initially, cumulative dose response curves to the agonist 11,9-(epoxymethano) PGH2 are obtained (typically at the same concentrations as for the rabbit aorta system). In a second experiment, the compound under test is added 50 minutes previous to the addition of the series of agonist doses.
(§1) In the case of each system, the affinity constant, KB, for the compound under test is calculated according to the Gaddum-Schild equation (based on Law of Mass Action). [formula]

human platelet system = assay: Prostacyclin-like activity in human platelet system (antagonism of ADP); type: cell-based
rabbit aorta = target: T2, rabbit aorta (Oryctolagus cuniculus, UniProt Q6WQI8); assay: Rabbit aorta system: antagonism of 11,9-(epoxymethano) PGH2 tension response in thoracic aorta strips (Gaddum-Schild KB); type: cell-based; details: agonist 11,9-(epoxymethano) PGH2; compound added 30 minutes before agonist; head KB × 10^-6
T2 construct: functional antagonism of U46619 contraction
T2 sequence (Q6WQI8 1-233): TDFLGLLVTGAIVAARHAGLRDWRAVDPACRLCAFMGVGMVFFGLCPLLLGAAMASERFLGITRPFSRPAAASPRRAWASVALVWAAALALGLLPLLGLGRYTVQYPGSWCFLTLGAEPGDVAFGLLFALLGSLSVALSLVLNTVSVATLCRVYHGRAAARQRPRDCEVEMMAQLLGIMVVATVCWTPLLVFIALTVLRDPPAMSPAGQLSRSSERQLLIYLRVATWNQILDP
Method: Spiral strips of thoracic aorta are suspended in Kreb's Henseleit solution and aerated with 95% O2 /5% CO2 at 37° C. Tension changes are recorded with a Grass FT03 force transducer. Initially, cumulative dose response curves to 11,9-(epoxymethanol) PGH2 (2×10^-9,1×10^-8, […] and 2.5×10^-7 M) are obtained. In a second experiment the individual compounds are added 30 minutes previous to the addition of the series of agonist doses.
as §1

[1] = system: guinea pig bronchoconstriction; assay: Modified Konzett-Rossler test: inhibition of PGH2 analogue-induced bronchoconstriction in anaesthetised guinea pig; type: in vivo
Method: A male albino guinea pig is anaethetised with a mixture of allyl barbituric acid and ethyl carbamate and the guinea pig is given intravenously a dose of 0.35 μg/kg of 11,9-(epoxymethane) PGH2. After a further period of 10 minutes, the guinea pig is treated intravenously with a dose of 0.3 mg/kg of trans-5-(6'-carboxy-5'-oxahexyl)-6-(1'-[N-phenylthiocarbamoyl-hydrazono]-ethyl-bicyclo [2,2,2] octane.
The guinea pig is then used in a modified Konzett-Rossler test which gives a measure of the inhibition produced by the test compound of the bronchoconstiction resulting from administration of the PGH2 derivative. This test involves artificially respiring the animals and measuring the amount of residual air with a pressure transducer.

[2] = target: T3, human platelet system (thromboxane receptor sites) (Homo sapiens, UniProt P21731); assay: Human platelet system: antagonism of 11,9-(epoxymethano) PGH2-induced aggregation of washed platelets (Gaddum-Schild KB); type: cell-based; details: agonist 11,9-(epoxymethano) PGH2, compound added 5 minutes before agonist, read-out: affinity constant KB (converted)
T3 construct: Washed platelets are prepared by centrifugation; endogenous in cells; host or cells: washed human platelets
T3 sequence (P21731 1-343): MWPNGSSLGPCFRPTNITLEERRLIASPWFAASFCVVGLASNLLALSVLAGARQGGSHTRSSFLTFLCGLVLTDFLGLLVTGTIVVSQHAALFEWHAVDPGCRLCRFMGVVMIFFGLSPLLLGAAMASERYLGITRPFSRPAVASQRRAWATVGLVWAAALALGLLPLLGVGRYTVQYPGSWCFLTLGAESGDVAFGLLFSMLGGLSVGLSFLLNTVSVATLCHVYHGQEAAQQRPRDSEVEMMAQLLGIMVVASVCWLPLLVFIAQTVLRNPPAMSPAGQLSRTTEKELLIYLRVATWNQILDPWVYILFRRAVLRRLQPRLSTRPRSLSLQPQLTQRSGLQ
Method: Washed platelets are prepared by centrifugation of plateletrich human plasma at 600×g for 20 minutes. The platelet pellet is resuspended in Ca^++ -free Kreb's solution.
Addition of the agonist 11.9-(epoxymethano) PGH2 (1×10^-7 to 5×10^-7 M) causes immediate aggregation recorded as an increase in light transmission (600 nm). In a second experiment the compound under test is added 5 minutes previous to the addition of the PGH2 analogue. The dose of the PGH2 analogue added is then increased to a level which gives a similar response to that obtained in the absence of antagonist.
as §1

CCCCCCNC(=S)NN=C(C)[C@@H]1C2CCC(CC2)[C@H]1CCCCOCC(=O)O (relative stereo) [Example 6, trans-5-(6'-Carboxy-5'-oxahexyl)-6'-(1'-[N-(hexylthiocarbamoyl)-hydrazono]-ethyl)-bicyclo [2,2,2] octane]
Kb (guinea pig trachea): 14.3 nM

CC(=NOC(c1ccccc1)c1ccccc1)[C@@H]1C2CCC(CC2)[C@H]1CCCCOCC(=O)O (relative stereo) [Example 3, trans-5-(6'-Carboxy-5'-oxahexyl)-6-[1'-(O-diphenylmethoxyimino)ethyl]-bicyclo [2,2,2] octane]
prostacyclin-like activity as evidenced by antagonism of ADP (human platelet system): very little prostacyclin-like activity

CC(=NNC(=S)Nc1ccccc1)[C@@H]1C2CCC(CC2)[C@H]1CCCCCOCC(=O)O (relative stereo) [Example 8, trans-5-(7'-Carboxy-6'-oxaheptyl)-6-(1'-[N-(phenylthiocarbamoyl)-hydrazano]-ethyl)-bicyclo [2,2,2] octane]
Kb (guinea pig trachea): 3.7 nM
Kb (rabbit aorta): 192 nM

COc1ccc(NC(=O)NN=C(C)[C@@H]2C3CCC(CC3)[C@H]2CCCCOCC(=O)O)cc1 (relative stereo) [Example 5, trans-5-(6'-Carboxy-5'-oxahexyl)-6-(7'-[N-(p-methoxyphenyl-carbamoyl)-hydrazono]-ethyl)-bicyclo [2,2,2] octane]
Kb (guinea pig trachea): ~0.25 nM

CC(=NNC(=S)Nc1ccccc1)[C@@H]1C2CCC(CC2)[C@H]1CCCCOCC(=O)O (relative stereo) [Example 4, trans-5-(6'-Carboxy-5'-oxahexyl)-6-(1'-[N-(phenylthiocarbamoyl)-hydrazono]-ethyl)-bicyclo [2,2,2] octane]
inhibition of bronchoconstriction resulting from the PGH2 analogue ([1]; 0.3 mg/kg intravenous, 11,9-(epoxymethano) PGH2 0.35 μg/kg i.v.): markedly blocked the action of the PGH2 analogue
bronchoconstriction caused by compound itself ([1]; 0.3 mg/kg, control without prior administration of PGH2 analogue): did not itself lead to any observable bronchoconstriction
Kb (rabbit aorta): 167 nM
Kb [2]: 4.76 nM

O=C(O)COCCOC[C@@H]1[C@@H]2CC[C@@H](C2)[C@H]1C=NOC(c1ccccc1)c1ccccc1 (relative stereo) [Example 10]
Kb (guinea pig trachea): 17.9 nM
Kb (rabbit aorta): 294 nM

CC(=NNC(=S)Nc1ccccc1)[C@@H]1[C@H]2CC[C@H](C2)[C@H]1C/C=C\CCCC(=O)O (relative stereo) [5-endo-(6'-carboxyhex-2'-Z-enyl)-6-exo-(1'-[N-(phenylthiocarbamoyl)-hydrazono]-ethyl-bicyclo [2,2,1]heptane, reference compound]
Kb [2]: 14.3 nM
